Experimental data from ChEMBL document CHEMBL2177037, “10'-Fluorovinblastine and 10'-Fluorovincristine: Synthesis of a Key Series of Modified Vinca Alkaloids” (ACS Med Chem Lett, 2011).
Active and inactive are the calls of the source. No cut-off for these calls is given here.

Tests used:
HCT-116/VM46 [1] = experiment: Cytotoxicity against human vinblastin-resistant HCT116/VM46 cells; assay type: functional, cell-based
L1210 [2] = experiment: Cytotoxicity against mouse L1210 cells; assay type: functional, cell-based
HCT-116 [3] = experiment: Cytotoxicity against human HCT116 cells; assay type: functional, cell-based
HCT-116 [4] = experiment: Antitumor activity against human HCT116 cells xenografted in mouse assessed as mouse survival at 0.5 mg/kg; assay type: functional, organism-based; set-up: dose 0.5 mg/kg
HCT-116/VM46 [5] = experiment: Ratio of vincristine IC50 to compound IC50 for human vincristine-resistant HCT116/VM46 cells; assay type: functional
L1210 [6] = experiment: Ratio of vincristine IC50 to compound IC50 for mouse L1210 cells; assay type: functional
HCT-116 [7] = experiment: Ratio of vincristine IC50 to compound IC50 for human HCT116 cells; assay type: functional
HCT-116 [8] = experiment: Ratio of vinblastin IC50 to compound IC50 for human HCT116 cells; assay type: functional
L1210 [9] = experiment: Ratio of vinblastin IC50 to compound IC50 for mouse L1210 cells; assay type: functional
HCT-116/VM46 [10] = experiment: Antitumor activity against human HCT116/VM46 cells xenografted in mouse assessed as mouse survival at 0.01 to 0.5 mg/kg, ip after 110 days; assay type: functional, organism-based
HCT-116/VM46 [11] = experiment: Ratio of vinblastin IC50 to compound IC50 for human vinblastin-resistant HCT116/VM46 cells; assay type: functional

| SMILES | IC50 (HCT-116/VM46 [1]) | IC50 (L1210 [2]) | IC50 (HCT-116 [3]) | further results |
| --- | --- | --- | --- | --- |
| CC[C@]1(O)C[C@H]2CN(CCc3c([nH]c4c(F)cccc34)[C@@](C(=O)OC)(c3cc4c(cc3OC)N(C)[C@H]3[C@@](O)(C(=O)OC)[C@H](OC(C)=O)[C@]5(CC)C=CCN6CC[C@]43[C@@H]65)C2)C1 | 0.73 µM | 0.05 µM | 0.065 µM | – |
| CC[C@]1(O)C[C@H]2CN(CCc3c([nH]c4c(Cl)cccc34)[C@@](C(=O)OC)(c3cc4c(cc3OC)N(C)[C@H]3[C@@](O)(C(=O)OC)[C@H](OC(C)=O)[C@]5(CC)C=CCN6CC[C@]43[C@@H]65)C2)C1 | 5 µM | 0.33 µM | 0.22 µM | – |
| CC[C@]1(O)C[C@@H]2CN(CCc3c([nH]c4ccccc34)[C@@](C(=O)OC)(c3cc4c(cc3OC)N(C)[C@H]3[C@@](O)(C(=O)OC)[C@H](OC(C)=O)[C@]5(CC)C=CCN6CC[C@]43[C@@H]65)C2)C1 [VINBLASTINE] | 0.6 µM | – | – | Activity (HCT-116 [4]): Active |
| CCC1=C[C@H]2CN(CCc3c([nH]c4c(F)cccc34)[C@@](C(=O)OC)(c3cc4c(cc3OC)N(C)[C@H]3[C@@](O)(C(=O)OC)[C@H](OC(C)=O)[C@]5(CC)C=CCN6CC[C@]43[C@@H]65)C2)C1 | 6.7 µM | 0.65 µM | 0.79 µM | – |
| CC[C@]1(O)C[C@H]2CN(CCc3c([nH]c4ccc(F)cc34)[C@@](C(=O)OC)(c3cc4c(cc3OC)N(C=O)[C@H]3[C@@](O)(C(=O)OC)[C@H](OC(C)=O)[C@]5(CC)C=CCN6CC[C@]43[C@@H]65)C2)C1 | – | 0.0008 µM | 0.0015 µM | Ratio IC50 (HCT-116/VM46 [5]): 5; Ratio IC50 (L1210 [6]): 5; Ratio IC50 (HCT-116 [7]): 5 |
| CCC1=C[C@H]2CN(CCc3c([nH]c4ccc(F)cc34)[C@@](C(=O)OC)(c3cc4c(cc3OC)N(C)[C@H]3[C@@](O)(C(=O)OC)[C@H](OC(C)=O)[C@]5(CC)C=CCN6CC[C@]43[C@@H]65)C2)C1 | 0.29 µM | 0.03 µM | 0.05 µM | – |
| CC[C@]1(O)C[C@H]2CN(CCc3c([nH]c4ccc(OC)cc34)[C@@](C(=O)OC)(c3cc4c(cc3OC)N(C)[C@H]3[C@@](O)(C(=O)OC)[C@H](OC(C)=O)[C@]5(CC)C=CCN6CC[C@]43[C@@H]65)C2)C1 | > 10 µM | 0.67 µM | 0.72 µM | – |
| CC[C@]1(O)C[C@H]2CN(CCc3c([nH]c4ccc(SC)cc34)[C@@](C(=O)OC)(c3cc4c(cc3OC)N(C)[C@H]3[C@@](O)(C(=O)OC)[C@H](OC(C)=O)[C@]5(CC)C=CCN6CC[C@]43[C@@H]65)C2)C1 | 0.78 µM | 0.05 µM | 0.05 µM | – |
| CC[C@]1(O)C[C@H]2CN(CCc3c([nH]c4ccc(C)cc34)[C@@](C(=O)OC)(c3cc4c(cc3OC)N(C)[C@H]3[C@@](O)(C(=O)OC)[C@H](OC(C)=O)[C@]5(CC)C=CCN6CC[C@]43[C@@H]65)C2)C1 | 0.6 µM | 0.0078 µM | 0.0078 µM | – |
| CCC1=C[C@H]2CN(CCc3c([nH]c4ccc(C#N)cc34)[C@@](C(=O)OC)(c3cc4c(cc3OC)N(C)[C@H]3[C@@](O)(C(=O)OC)[C@H](OC(C)=O)[C@]5(CC)C=CCN6CC[C@]43[C@@H]65)C2)C1 | 0.92 µM | 0.065 µM | 0.07 µM | – |
| CCC1=C[C@H]2CN(CCc3c([nH]c4ccc(Br)cc34)[C@@](C(=O)OC)(c3cc4c(cc3OC)N(C)[C@H]3[C@@](O)(C(=O)OC)[C@H](OC(C)=O)[C@]5(CC)C=CCN6CC[C@]43[C@@H]65)C2)C1 | 0.86 µM | 0.065 µM | 0.07 µM | – |
| CCC1=C[C@H]2CN(CCc3c([nH]c4ccccc34)[C@@](C(=O)OC)(c3cc4c(cc3OC)N(C)[C@H]3[C@@](O)(C(=O)OC)[C@H](OC(C)=O)[C@]5(CC)C=CCN6CC[C@]43[C@@H]65)C2)C1 | 0.6 µM | 0.065 µM | 0.075 µM | – |
| CCC1=C[C@H]2CN(CCc3c([nH]c4ccc(Cl)cc34)[C@@](C(=O)OC)(c3cc4c(cc3OC)N(C)[C@H]3[C@@](O)(C(=O)OC)[C@H](OC(C)=O)[C@]5(CC)C=CCN6CC[C@]43[C@@H]65)C2)C1 | 0.8 µM | 0.06 µM | 0.07 µM | – |
| CC[C@]1(O)C[C@H]2CN(CCc3c([nH]c4ccc(F)cc34)[C@@](C(=O)OC)(c3cc4c(cc3OC)N(C)[C@H]3[C@@](O)(C(=O)OC)[C@H](OC(C)=O)[C@]5(CC)C=CCN6CC[C@]43[C@@H]65)C2)C1 | 0.08 µM | 0.0007 µM | 0.0008 µM | Ratio IC50 (HCT-116 [8]): 8; Ratio IC50 (L1210 [9]): 8; Activity (HCT-116/VM46 [10]): Active; Ratio IC50 (HCT-116/VM46 [11]): 8 |
| CC[C@]1(O)C[C@H]2CN(CCc3c([nH]c4c(I)cccc34)[C@@](C(=O)OC)(c3cc4c(cc3OC)N(C)[C@H]3[C@@](O)(C(=O)OC)[C@H](OC(C)=O)[C@]5(CC)C=CCN6CC[C@]43[C@@H]65)C2)C1 | 0.91 µM | 0.055 µM | 0.08 µM | – |
| CCC1=C[C@H]2CN(CCc3c([nH]c4ccc(SC)cc34)[C@@](C(=O)OC)(c3cc4c(cc3OC)N(C)[C@H]3[C@@](O)(C(=O)OC)[C@H](OC(C)=O)[C@]5(CC)C=CCN6CC[C@]43[C@@H]65)C2)C1 | 0.77 µM | 0.06 µM | 0.085 µM | – |
| CCC1=C[C@H]2CN(CCc3c([nH]c4ccc(C)cc34)[C@@](C(=O)OC)(c3cc4c(cc3OC)N(C)[C@H]3[C@@](O)(C(=O)OC)[C@H](OC(C)=O)[C@]5(CC)C=CCN6CC[C@]43[C@@H]65)C2)C1 | 0.64 µM | 0.065 µM | 0.065 µM | – |
| CC[C@]1(O)C[C@H]2CN(CCc3c([nH]c4ccc(C#N)cc34)[C@@](C(=O)OC)(c3cc4c(cc3OC)N(C)[C@H]3[C@@](O)(C(=O)OC)[C@H](OC(C)=O)[C@]5(CC)C=CCN6CC[C@]43[C@@H]65)C2)C1 | > 10 µM | 0.63 µM | 0.62 µM | – |
| CCC1=C[C@H]2CN(CCc3c([nH]c4ccc(O)cc34)[C@@](C(=O)OC)(c3cc4c(cc3OC)N(C)[C@H]3[C@@](O)(C(=O)OC)[C@H](OC(C)=O)[C@]5(CC)C=CCN6CC[C@]43[C@@H]65)C2)C1 | 7.2 µM | 0.59 µM | 0.5 µM | – |
| CC[C@]1(O)C[C@H]2CN(CCc3c([nH]c4c(Br)cccc34)[C@@](C(=O)OC)(c3cc4c(cc3OC)N(C)[C@H]3[C@@](O)(C(=O)OC)[C@H](OC(C)=O)[C@]5(CC)C=CCN6CC[C@]43[C@@H]65)C2)C1 | 0.91 µM | 0.05 µM | 0.08 µM | – |
| CC[C@]1(O)C[C@H]2CN(CCc3c([nH]c4ccc(Cl)cc34)[C@@](C(=O)OC)(c3cc4c(cc3OC)N(C)[C@H]3[C@@](O)(C(=O)OC)[C@H](OC(C)=O)[C@]5(CC)C=CCN6CC[C@]43[C@@H]65)C2)C1 | 0.72 µM | 0.0062 µM | 0.0076 µM | – |
| CCC1=C[C@H]2CN(CCc3c([nH]c4c(Br)cccc34)[C@@](C(=O)OC)(c3cc4c(cc3OC)N(C)[C@H]3[C@@](O)(C(=O)OC)[C@H](OC(C)=O)[C@]5(CC)C=CCN6CC[C@]43[C@@H]65)C2)C1 | 3.9 µM | 0.6 µM | 0.74 µM | – |
| CCC1=C[C@H]2CN(CCc3c([nH]c4ccc(I)cc34)[C@@](C(=O)OC)(c3cc4c(cc3OC)N(C)[C@H]3[C@@](O)(C(=O)OC)[C@H](OC(C)=O)[C@]5(CC)C=CCN6CC[C@]43[C@@H]65)C2)C1 | 1.8 µM | 0.62 µM | 0.6 µM | – |
| CCC1=C[C@H]2CN(CCc3c([nH]c4ccc(OC)cc34)[C@@](C(=O)OC)(c3cc4c(cc3OC)N(C)[C@H]3[C@@](O)(C(=O)OC)[C@H](OC(C)=O)[C@]5(CC)C=CCN6CC[C@]43[C@@H]65)C2)C1 | 5.5 µM | 0.55 µM | 0.64 µM | – |
| CC[C@]1(O)C[C@H]2CN(CCc3c([nH]c4ccc(Br)cc34)[C@@](C(=O)OC)(c3cc4c(cc3OC)N(C)[C@H]3[C@@](O)(C(=O)OC)[C@H](OC(C)=O)[C@]5(CC)C=CCN6CC[C@]43[C@@H]65)C2)C1 | 0.27 µM | 0.008 µM | 0.0086 µM | – |
| CCC1=C[C@H]2CN(CCc3c([nH]c4c(I)cccc34)[C@@](C(=O)OC)(c3cc4c(cc3OC)N(C)[C@H]3[C@@](O)(C(=O)OC)[C@H](OC(C)=O)[C@]5(CC)C=CCN6CC[C@]43[C@@H]65)C2)C1 | 6.2 µM | 0.69 µM | 0.87 µM | – |
| CC[C@]1(O)C[C@H]2CN(CCc3c([nH]c4ccc(I)cc34)[C@@](C(=O)OC)(c3cc4c(cc3OC)N(C)[C@H]3[C@@](O)(C(=O)OC)[C@H](OC(C)=O)[C@]5(CC)C=CCN6CC[C@]43[C@@H]65)C2)C1 | 0.84 µM | 0.055 µM | 0.06 µM | – |
| CCC1=C[C@H]2CN(CCc3c([nH]c4c(Cl)cccc34)[C@@](C(=O)OC)(c3cc4c(cc3OC)N(C)[C@H]3[C@@](O)(C(=O)OC)[C@H](OC(C)=O)[C@]5(CC)C=CCN6CC[C@]43[C@@H]65)C2)C1 | 7.3 µM | 0.64 µM | 0.88 µM | – |
| CC[C@]1(O)C[C@H]2CN(CCc3c([nH]c4ccccc34)[C@@](C(=O)OC)(c3cc4c(cc3OC)N(C=O)[C@H]3[C@@](O)(C(=O)OC)[C@H](OC(C)=O)[C@]5(CC)C=CCN6CC[C@]43[C@@H]65)C2)C1 [VINCRISTINE] | – | 0.006 µM | 0.007 µM | – |
